Key:
[1] = molecular target: T1, OR2AT4 (Homo sapiens, UniProt A6NND4); design: host or cells: keratinocytes; conditions: cited from earlier work
T1 sequence (A6NND4 1-320): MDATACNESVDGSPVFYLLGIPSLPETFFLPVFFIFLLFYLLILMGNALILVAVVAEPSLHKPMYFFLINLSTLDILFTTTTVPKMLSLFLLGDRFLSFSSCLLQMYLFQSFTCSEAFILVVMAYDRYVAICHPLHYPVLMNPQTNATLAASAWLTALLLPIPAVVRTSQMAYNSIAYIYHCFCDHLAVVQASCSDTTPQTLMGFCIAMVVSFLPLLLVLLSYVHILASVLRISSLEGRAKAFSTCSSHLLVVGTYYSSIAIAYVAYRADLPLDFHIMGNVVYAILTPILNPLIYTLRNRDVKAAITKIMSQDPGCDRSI

[2] = tested on: HaCaT-OR2AT4-Myc-DDK transfectants; test: XTT cell proliferation assay in HaCaT-OR2AT4-Myc-DDK transfectants; assay type: cell-based, human; conditions: 250 µM, days 1, 3 and 5, compared to vehicle (Control)
[3] = molecular target: T1, OR2AT4; test: CRE-luciferase reporter activity assay in 293 cells stably expressing OR2AT4; assay type: cell-based; design: GeneScript (pcDNA3.1-Hygro for GNAL); conditions: synthetic odorants 400 µM, 4 hours, clone 293-OR2AT4-Golf-clone#2
Description: • Figure 1. Generation of a 293 clone that stably expresses the OR2AT4 receptor. The 293-OR2AT4-Golf transfectant was generated by means of calcium phosphate cotransfection into 293 cells of the expression plasmids for the OR2AT4 receptor (NM_001005285, pCMV6-Entry-OR2AT4-Neo; Origene) and for the Golf subunit of G proteins, generated by means of subcloning the hGNAL gene (NM_001261443.1) into the expression plasmid (pcDNA3.1-Hygro, GeneScript). Stable transfectants were selected on medium containing neomycin and hygromycin B, and clone 293-OR2AT4-Golf-clone#2 was obtained by limiting dilution. […] Replicates of the reactions for the target and housekeeping genes, which were performed simultaneously for each template cDNA analysed, were included in triplicate. […] Data normalisation was calculated by means of the formula [Luc/Renilla(N)-Luc/Renilla(lowest)]/[Luc/Renilla(highest)-Luc/Renilla(lowest)]. […] Means were calculated using three replicates per condition, n=3. […] Statistical significance was determined using Student's t test (*p<0.05 and **p<0.001, with respect to control). […] The anti proliferative effect of the aptamers on the K562 cell line was evaluated in a colorimetric proliferation assay based on the reduction of tetrazolium salts (XTT). […]

[4] = tested on: telogen effluvium; conditions: solution containing 1% Sandalore applied for 24 weeks, 60 patients with telogen effluvium; cited from earlier work
[5] = tested on: human hair follicles; conditions: ex vivo; cited from earlier work

Row | SMILES | activation of the OR2AT4 receptor expressed in keratinocytes [1] | cell proliferation [2] | cAMP production (normalised luciferase activity) [3] | degree of hair loss, hair volume, terminal/vellous hair ratio, anagen/catagen-telogen ratio, patient's self-esteem [4] | apoptosis [5] | hair growth [5] | production of the growth factor IGF-1 [5]
1 | CC1=CCC(CCC(C)CO)C1(C)C (stereo not shown) [Brahmanol, sandal cyclopentane] | capable of activating the OR2AT4 receptor | significant proliferative response | activated cAMP production | – | – | – | –
2 | CC1=CCC(CCC(C)C(C)O)C1(C)C (stereo not shown) [Sandalore, sandal pentanol] | capable of activating the OR2AT4 receptor | significant proliferative response | activated cAMP production | improvement | reducing apoptosis | promotes hair growth | increasing the production

— patent EP4656722A1, “OR2AT4 RECEPTOR AGONIST APTAMERS AND USES THEREOF” (Fundacion Instituto De Investigacion Sanitaria Fundacion …, priority 2024, dated 2025)
